Test results: patent US5939424A, “Compounds for treating disorders of lipid metabolism and their preparation” (Hoechst Aktiengesellschaft, priority 1996, dated 1999)
Counter-ions that a name gives are not always drawn.

These molecules were tested on LDL receptor mRNA (assay: LDL receptor mRNA levels in rat livers (Northern blot, β-actin as internal standard)). Conditions: rat liver, 30 mg/kg, 6 hours after administration; untreated control = 100%.
Format: in vivo
Method: To test the ability of the inventive compounds to lower plasma lipid levels, the stimulation of LDL receptor mRNA production was chosen as a surrogate. Thus, in rat livers, within a few hours the LDL receptor mRNA levels are increased by the compounds of the formula I (Table I). The stimulation is in the range from 170 to 350% of the controls (control=100%).
The preparation of the mRNA was carried out according to the method of Chomczynski, P. and Sacchi, N., Anal. Biochem. 162, 156-159 (1987). In organs (such as, for example, liver), the deep-frozen tissue was homogenized on dry ice beforehand in a mortar and the mRNA was further enriched by means of Oligo dT according to standard methods (cf. Sambrook, J., Fritsch, E. F. and Maniatis, T., Molecular Cloning, second Edition, Cold Spring Harbor (1989); in this collection of methods, there are also descriptions of all further relevant molecular biology standard methods used here). Five to […] of the dissolved mRNA thus obtained were denatured according to standard methods and separated on 1% horizontal agarose gels. The mRNA was transferred to Hybond N membranes (Amersham) by means of capillary blot. The specific hybridization probe used was a partial LDL receptor cDNA clone and the internal standard a plasmid which contained a β-actin gene. Both plasmids were labeled by means of a random primer kit from Amersham up to a specific activity of 5×10^9 cpm/mg. Prehybridization, hybridization and washing of the filters were carried out by standard methods. The filters were then exposed at -70° C. on Cronex 4 films (Dupont) overnight up to 14 days in the presence of an intensifying screen and the hybridization signals were quantified using a commercial laser densitometer by means of the film-blackening intensity. The quotient of the intensity of the LDL receptor band and of the actin band was then determined as an internal standard to correct yield variations.
Liver tissue was removed and shock-frozen in liquid nitrogen. The mRNA was then isolated as described, and the relative LDL receptor mRNA levels were determined by means of the Northern blot technique. The mRNA levels of untreated control animals were set at 100%, and the stimulation of the LDL receptor mRNA in percent of the control was calculated.
With `CC1(C)CN(c2ncc(C(=O)Nc3cccc(OC(F)(F)F)c3)c(N)n2)C(=O)N1` [Example 2, 4-Amino-2-(4,4-dimethylimidazolidin-2-on-1-yl)-5-(3-trifluoromethoxyphenylpyrimidine)carboxamide] the “LDL receptor mRNA (stimulation in percent of the control)” value was 250%. In the case of `CCN(C(=O)c1cnc(N2CC(C)(C)NC2=O)nc1N)c1cccc(OC(F)(F)F)c1` [Example 3, 4-Amino-2-(4,4-dimethyl-2-oxo-1-imidazolidin-2-on-1-yl)-5-[N-ethyl-N-(3-trifluoromethoxy)phenyl]pyrimidinecarboxamide hydrochloride], the “LDL receptor mRNA (stimulation in percent of the control)” value is reported as 235%. In the case of `CC1(C)CN(c2ncc(C(=O)N(CC(F)(F)F)c3cccc(OC(F)(F)F)c3)c(N)n2)C(=O)N1` [Example 4, 4-Amino-2-(4,4-dimethylimidazolidin-2-on-1-yl)-5-[N-(2,2,2-trifluoroethyl)-N-(3-trifluoromethoxyphenyl)]-pyrimidinecarboxamide], the “LDL receptor mRNA (stimulation in percent of the control)” value is reported as 230%. With `CC1(C)CN(c2ncc(C(=O)Nc3ccc4c(c3)OC(F)(F)O4)c(N)n2)C(=O)N1` [Example 14, 4-Amino-2-(4,4-dimethylimidazolidin-2-on-1-yl)-5-[N-(2,2-difluorobenzo-1,3-dioxol-5-yl)]pyrimidinecarboxamide-hydrochloride] the “LDL receptor mRNA (stimulation in percent of the control)” value was 250%. For `CC1(C)CN(c2ncc(C(=O)Nc3ccc4c(c3)OC(F)(F)C(F)(F)O4)c(N)n2)C(=O)N1` [Example 15, 4-Amino-2-(4,4-dimethylimidazolidin-2-on-1-yi)-5-[N-(2,2,3,3-tetrafluorobenzo-1,4-dioxan-6-yl)]-pyrimidinecarboxamide hydrochloride], the “LDL receptor mRNA (stimulation in percent of the control)” value was 242%. `CC1(C)CN(c2ncc(C(=O)Nc3cccc(SC(F)(F)F)c3)c(N)n2)C(=O)N1` [Example 22, 4-Amino-2-(4,4-dimethylimidazolidin-2-on-1-yl)-5-[N-(3-trifluorothiomethyl-phenyl)]pyrimidinecarboxamide-hydrochloride] was tested, and the “LDL receptor mRNA (stimulation in percent of the control)” value was 235%.
